Laboratory results as given in patent US20060223792A1, “Phenyl and pyridyl LTA4H modulators” (priority 2005, published 2006).

target: T1, recombinant human LTA4 hydrolase (rhLTA4H) (Homo sapiens, UniProt P09960); assay: Recombinant human LTA4 hydrolase assay for LTA4 hydrolase inhibitor activity; format: biochemical; details: recombinant human LTA4H, LTB4 quantified by enzyme-linked immunoassay; average of one to three determinations; read-out: IC50
T1 construct: made in house; host or cells: Spodoptera frugiperda (Sf-9) cells, baculovirus (pFastBac1)
T1 sequence (P09960 1-611): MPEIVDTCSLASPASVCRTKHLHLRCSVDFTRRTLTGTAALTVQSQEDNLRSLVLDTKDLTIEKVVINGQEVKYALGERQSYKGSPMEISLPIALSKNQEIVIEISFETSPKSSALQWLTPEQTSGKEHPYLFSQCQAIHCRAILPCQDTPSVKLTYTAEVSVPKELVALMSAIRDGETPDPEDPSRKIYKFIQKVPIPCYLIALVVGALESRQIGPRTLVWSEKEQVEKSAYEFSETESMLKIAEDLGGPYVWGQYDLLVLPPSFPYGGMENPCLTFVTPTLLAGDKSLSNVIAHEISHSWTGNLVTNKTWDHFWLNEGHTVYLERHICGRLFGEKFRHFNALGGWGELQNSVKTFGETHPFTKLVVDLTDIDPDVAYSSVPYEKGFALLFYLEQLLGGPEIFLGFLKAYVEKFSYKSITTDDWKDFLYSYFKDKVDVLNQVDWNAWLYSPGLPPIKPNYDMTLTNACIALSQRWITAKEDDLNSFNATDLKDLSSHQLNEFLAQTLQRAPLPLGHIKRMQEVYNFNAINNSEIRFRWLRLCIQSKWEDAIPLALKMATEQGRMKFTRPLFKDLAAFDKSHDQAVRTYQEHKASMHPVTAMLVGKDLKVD
Outline: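 Sf-9-expressed rhLTA4H (36 ng) preincubated 10 min at rt with compound in 0.1 M potassium phosphate pH 7.4, 5 mg/mL fatty-acid-free BSA; 9 ng LTA4 free acid added, 10 min at rt in 225 μL. LTB4 measured by enzyme immunoassay; IC50 from 4-parameter fit, mean of one to three determinations.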

| Structure (SMILES) | IC50 |
| --- | --- |
| CN(C(=O)Oc1ccc(OCCN2CCC(O)(c3ccccc3)CC2)cc1)c1ccccc1 [Example 40, Methyl-phenyl-carbamic acid 4-[2-(4-hydroxy-4-phenyl-piperidin-1-yl)-ethoxy]-phenyl ester] | 73 nM |
| O=C(O)C1CCN(CCc2ccc(OCCc3ccccc3)cc2)CC1 [Example 81, 1-[2-(4-Phenethyloxy-phenyl)-ethyl]-piperidine-4-carboxylic acid] | 19 nM |
| O=C(O)C1CCN(CCOc2ccc(OCCCc3ccccc3)cc2)CC1 [Example 117, 1-{2-[4-(3-Phenyl-propoxy)-phenoxy]-ethyl}-piperidine-4-carboxylic acid] | 51 nM |

Stronger by IC50, values ahead:

| IC50 | Structure (SMILES) |
| --- | --- |
| 10 nM | O=C(O)C1CCN(Cc2ccc(OCCc3ccccc3)cc2)CC1 [Example 96, 1-(4-Phenethyloxy-benzyl)-piperidine-4-carboxylic acid] |
| 17 nM | O=C1CCCN1C1CCN(Cc2ccc(OCCc3ccccc3)cc2)CC1 [Example 99, 1-[1-(4-Phenethyloxy-benzyl)-piperidin-4-yl]-pyrrolidin-2-one] |
| 4 nM | O=C(O)C1CCN(Cc2ccc(OCCCc3ccccc3)cc2)CC1 [Example 112, 1-[4-(3-Phenyl-propoxy)-benzyl]-piperidine-4-carboxylic acid] |
